Here are results for 6 compounds from US5767268A, “Sulfuric acid esters of amino sugars” (Hoffmann-La Roche Inc., priority 1995, dated 1998).

The structures appear in SMILES notation. Where a name gives a salt, the structure may show the parent alone. Read-outs that look alike come from different tables or passages of the source.

The target in one experiment is T1, thrombin (Homo sapiens, UniProt P00734).
T1 construct: purchased Roche Basle (Thrombin Reagent)
It counts as biochemical.

In another experiment the target is T2, Factor Xa (Bos taurus, UniProt P00743).
T2 sequence (P00743 41-180 limits assumed): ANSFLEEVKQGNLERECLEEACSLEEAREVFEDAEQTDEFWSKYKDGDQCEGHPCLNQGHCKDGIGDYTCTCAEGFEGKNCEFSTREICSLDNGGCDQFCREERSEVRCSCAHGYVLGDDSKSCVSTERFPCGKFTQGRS
Kind of experiment: Blood coagulation inhibition: inhibition of Factor Xa in the Chromogen Substrate Test. It counts as biochemical.

The next experiment has as its system rat smooth muscle cells. Kind of experiment: Antiproliferative activity (ri, relative to heparin) in rat smooth muscle cells. Also noted: key: growth inhibition relative to heparin at 100 μg/ml, same experiment. The note with it: 100 μg/ml, 48 h, relative to heparin at 100 μg/ml in the same experiment. It counts as cell-based. The protocol:
Antiproliferative Activity
The antiproliferative activity of a substance is expressed as the ri value which is a comparative value to the corresponding activity of heparin and which was determined in cell cultures as follows: rat smooth muscle cells were applied to cell culture plates in a density of 8×10^3 cells/well (medium: DMEM with 10% FCS. Cultivation at 37° C. and 5% CO2). After 4 hours, the number of adhered cells was determined and the substances to be tested (100 μg/ml, dissolved in H2 O) were added. […] Subsequently, the cells were incubated for 48 h. and thereafter the cell count was determined once more.
The inhibition i of the cell growth, that is, the reduction in the growth rate of the cells in percent compared to the control, was calculated from these values. [formula] the growth rate μbeing calculated as [formula] in which Z is the number of cells and d is the time in days.
Finally, ri --the relative inhibitory activity--which expresses the activity of a substance (at 100 μg/ml) in comparison to the activity of heparin in the same concentration in the same experiment, was calculated: [formula] Blood Coagulation Inhibition

[1] abbreviates: with antithrombin III and plasma, S-2238 substrate, 37° C., pH 8.4; read-out: Anticoagulative Activity IC50 Thrombin.
[2] abbreviates: with antithrombin III and plasma, S-2222 substrate; read-out: Anticoagulative Activity IC50 Factor Xa.
[3] abbreviates: read-out: Anticoagulative Activity IC50 Thrombin; with antithrombin III and plasma, S-2238 substrate, 37° C., pH 8.4.
Where [4] appears, read: read-out: Anticoagulative Activity IC50 Factor Xa; with antithrombin III and plasma, S-2222 substrate.

Procedure for Factor Xa: (§1) Inhibition of thrombin or Factor Xa in the Chromogen Substrate Test (Teien et al., Thrombosis Research 10, 399-410 (1977)): The determination was effected in a Cobas-Bio centrifugal automatic spectrophotometer. The buffer solution used consisted of 50 mM Tris buffer, 180 mM NaCl, 7.5 mM EDTA Na2, 1% PEG 6000 and 0.02% Tween 80, pH 8.4. The test solution consisted of 50 μl of buffer, 30 μl of antithombin III (1U/ml, Kabi Diagnostica) and 20 μl of plasma which contained various concentrations of test compounds. 30 μl of sample solution and 20 μl of water with 180 μl of thrombin (1U/ml, Thrombin Reagent Roche Basle) were added to the test cuvette in the automatic analyzer. After incubation at 37° C. for 240 seconds, 60 μl of S-2238 (H-D-Phe-Pip-Arg-NH.pNA, Kabi Diagnostica, Mondal, Sweden, 0.75 mM in water) and 20 μl of water were added. The liberation of pNA (p-nitro-aniline) was followed during 60 seconds at 405 nm in 10 second intervals in comparison to water as the blank.
The inhibition of Factor Xa was measured in the same manner using a solution of Factor Xa (2.8 nkat/ml and 2 mM S-2222 (Bz-CO-Ile-Glu-Arg-NH.pNA, Kabi Diagnostica) in water in place of thrombin and, respectively, S-2238.
Procedure for thrombin: as §1

With `O=C(CO[C@@H]1[C@@H](NC(=O)c2ccc(-c3ccc(C(=O)N[C@H]4[C@@H](OCc5ccccc5)O[C@@H]5CO[C@@H](c6ccccc6)O[C@H]5[C@@H]4OCC(=O)N[C@H]4[C@@H](OCc5ccccc5)O[C@H](COS(=O)(=O)O)[C@@H](OS(=O)(=O)O)[C@@H]4OS(=O)(=O)O)cc3)cc2)[C@@H](OCc2ccccc2)O[C@@H]2CO[C@@H](c3ccccc3)O[C@@H]12)N[C@H]1[C@@H](OCc2ccccc2)O[C@H](COS(=O)(=O)O)[C@@H](OS(=O)(=O)O)[C@@H]1OS(=O)(=O)O` [Example 11, (Biphenyl-4,4'-dicarboxylic acid) bis-[[benzyl 3-O-[(benzyl 2-desoxy-2,3,4-tri-O-sulfo-a-D-glucopyranoside)-2-yl-carbamoylmethyl]-4,6-(R)-O-benzylidene-2-desoxy-a-D-glucopyranosid-2-yl]-amide] hexasodium salt], the IC50 at thrombin (setting [1]) and at Factor Xa (setting [2]) was more than 495 µM throughout. For the same compound, in the experiment with rat smooth muscle cells, the “Antiproliferative Activity ri (relative inhibitory activity versus heparin)” value turned out to be 1.7.

For the compound `O=C(N[C@H]1[C@@H](OCc2ccccc2)O[C@H](CNC(=O)[C@H](OS(=O)(=O)O)[C@@H](OS(=O)(=O)O)[C@H](OS(=O)(=O)O)[C@@H](COS(=O)(=O)O)OS(=O)(=O)O)[C@@H](OS(=O)(=O)O)[C@@H]1OS(=O)(=O)O)c1ccc(/C=C\c2ccc(C(=O)N[C@H]3[C@@H](OCc4ccccc4)O[C@H](CNC(=O)[C@H](OS(=O)(=O)O)[C@@H](OS(=O)(=O)O)[C@H](OS(=O)(=O)O)[C@@H](COS(=O)(=O)O)OS(=O)(=O)O)[C@@H](OS(=O)(=O)O)[C@@H]3OS(=O)(=O)O)cc2)cc1` [Example 23, (Z)-stilbene-4,4'-dicarboxylic acid bis-[[benzyl 2,6-didesoxy-6-(2,3,4,5,6-penta-O-sulfo-D-gluconoylamino)-3,4-di-O-sulfo-α-D-glucopyranosid-2-yl]-amide] tetradecasodium salt], the IC50 on thrombin (setting [1]) and at Factor Xa (setting [2]) was more than 445 µM in each case. Besides, the “Antiproliferative Activity ri (relative inhibitory activity versus heparin)” value with rat smooth muscle cells is reported as 1.8.

For `O=C(NC[C@H]1O[C@H](OCc2ccccc2)[C@H](NC(=O)c2ccc(NC[C@H](OS(=O)(=O)O)[C@@H](OS(=O)(=O)O)[C@H](OS(=O)(=O)O)[C@@H](COS(=O)(=O)O)OS(=O)(=O)O)c([N+](=O)[O-])c2)[C@@H](OS(=O)(=O)O)[C@@H]1OS(=O)(=O)O)c1cc(C(=O)NC[C@H]2O[C@H](OCc3ccccc3)[C@H](NC(=O)c3ccc(NC[C@H](OS(=O)(=O)O)[C@@H](OS(=O)(=O)O)[C@H](OS(=O)(=O)O)[C@@H](COS(=O)(=O)O)OS(=O)(=O)O)c([N+](=O)[O-])c3)[C@@H](OS(=O)(=O)O)[C@@H]2OS(=O)(=O)O)cc(C(=O)NC[C@H]2O[C@H](OCc3ccccc3)[C@H](NC(=O)c3ccc(NC[C@H](OS(=O)(=O)O)[C@@H](OS(=O)(=O)O)[C@H](OS(=O)(=O)O)[C@@H](COS(=O)(=O)O)OS(=O)(=O)O)c([N+](=O)[O-])c3)[C@@H](OS(=O)(=O)O)[C@@H]2OS(=O)(=O)O)c1` [Example 30, Benzene-1,3,5-tricarboxylic acid tris-[[benzyl 2,6-didesoxy-2-[4-(2,3,4,5,6-penta-O-sulfo-D-glucit-1-ylamino)-3-nitro-benzoylamino]-3,4-di-O-sulfo-a-D-glucopyranosid-6-yl]-amide] henicosasodium salt], the IC50 on thrombin (setting [3]) and on Factor Xa (setting [4]) was more than 276 µM throughout. Further, the “Antiproliferative Activity ri (relative inhibitory activity versus heparin)” value in the experiment on rat smooth muscle cells was 1.6.

In the case of `O=C(NC[C@H]1O[C@H](OCc2ccccc2)[C@H](NC(=O)c2ccc(NC[C@H](OS(=O)(=O)O)[C@@H](OS(=O)(=O)O)[C@H](OS(=O)(=O)O)[C@@H](COS(=O)(=O)O)OS(=O)(=O)O)c([N+](=O)[O-])c2)[C@@H](OS(=O)(=O)O)[C@@H]1OS(=O)(=O)O)c1ccc(/C=C/c2ccc(C(=O)NC[C@H]3O[C@H](OCc4ccccc4)[C@H](NC(=O)c4ccc(NC[C@H](OS(=O)(=O)O)[C@@H](OS(=O)(=O)O)[C@H](OS(=O)(=O)O)[C@@H](COS(=O)(=O)O)OS(=O)(=O)O)c([N+](=O)[O-])c4)[C@@H](OS(=O)(=O)O)[C@@H]3OS(=O)(=O)O)cc2Cl)cc1` [Example 32, (E)-2-Chloro-stilbene-4,4'-dicarboxylic acid bis-[[benzyl 2,6-didesoxy-2-[4-(2,3,4,5,6-penta-O-sulfo-D-glucit-1-ylamino)-3-nitro-benzoylamino]-3,4-di-O-sulfo-a-D-glucopyranosid-6-yl]-amide] tetradecasodium salt], the IC50 at thrombin (setting [3]) and at Factor Xa (setting [4]) was more than 387 µM throughout. In addition, in the experiment on rat smooth muscle cells, the “Antiproliferative Activity ri (relative inhibitory activity versus heparin)” value is 1.4.

For `O=C(NC[C@H]1O[C@H](OCc2ccccc2)[C@H](NC(=O)c2ccc(NC[C@H](OS(=O)(=O)O)[C@@H](OS(=O)(=O)O)[C@H](OS(=O)(=O)O)[C@@H](COS(=O)(=O)O)OS(=O)(=O)O)c([N+](=O)[O-])c2)[C@@H](OS(=O)(=O)O)[C@@H]1OS(=O)(=O)O)c1cccc(C(=O)NC[C@H]2O[C@H](OCc3ccccc3)[C@H](NC(=O)c3ccc(NC[C@H](OS(=O)(=O)O)[C@@H](OS(=O)(=O)O)[C@H](OS(=O)(=O)O)[C@@H](COS(=O)(=O)O)OS(=O)(=O)O)c([N+](=O)[O-])c3)[C@@H](OS(=O)(=O)O)[C@@H]2OS(=O)(=O)O)c1` [Example 33, Isophthalic acid bis-[[benzyl 2,6-didesoxy-2-[4-(2,3,4,5,6-penta-O-sulfo-D-glucit-1-ylamino)-3-nitro-benzoylamino]-3,4-di-O-sulfo-a-D-glucopyranosid-6-yl]-amide] tetradecasodium salt], the IC50 on thrombin (setting [3]) and on Factor Xa (setting [4]) was more than 409 µM in each case. Besides, the “Antiproliferative Activity ri (relative inhibitory activity versus heparin)” value in the experiment with rat smooth muscle cells turned out to be 1.5.

On to `O=C(N[C@H]1[C@@H](OCc2ccccc2)O[C@H](CN2C(=O)c3ccc4c5c(ccc(c35)C2=O)C(=O)N(C[C@H]2O[C@H](OCc3ccccc3)[C@H](NC(=O)c3ccc(NC[C@H](OS(=O)(=O)O)[C@@H](OS(=O)(=O)O)[C@H](OS(=O)(=O)O)[C@@H](COS(=O)(=O)O)OS(=O)(=O)O)c([N+](=O)[O-])c3)[C@@H](OS(=O)(=O)O)[C@@H]2OS(=O)(=O)O)C4=O)[C@@H](OS(=O)(=O)O)[C@@H]1OS(=O)(=O)O)c1ccc(NC[C@H](OS(=O)(=O)O)[C@@H](OS(=O)(=O)O)[C@H](OS(=O)(=O)O)[C@@H](COS(=O)(=O)O)OS(=O)(=O)O)c([N+](=O)[O-])c1` [Example 34, 2,7-Bis-[benzyl 2,6-didesoxy-2-[3-nitro-4-(2,3,4,5,6-penta-O-sulfo-D-glucit-1-ylamino)-benzoylamino]-3,4-di-O-sulfo-a-D-1 5 glucopyranosid-6-yl]-1,2,3,6,7,8-hexahydro-benzo[lmn][3,8] phenanthroline-1,3,6,8-tetraone tetradecasodium salt], for which the IC50 on thrombin (setting [3]) and on Factor Xa (setting [4]) was more than 393 µM throughout. In the experiment with rat smooth muscle cells, the “Antiproliferative Activity ri (relative inhibitory activity versus heparin)” value turned out to be 3.9.
